Source: ChEMBL document CHEMBL3112574, “Substituted piperidines as HDM2 inhibitors” (Bioorg Med Chem Lett, 2014)

Experiments:
[1] = molecular target: Tumour suppressor p53/oncoprotein Mdm2 (Homo sapiens, UniProt Q00987); experiment: Inhibition of human MDM2/p53 interaction by fluorescence polarization assay; type: protein assay
[2] = Cmax in mouse at 20 mg/kg, po; type: ADME, organism-based; parameters: dose 20 mg/kg, route oral; conditions: in vivo
[3] = AUC (0 to 24 hrs) in mouse at 20 mg/kg, iv; type: ADME, organism-based; parameters: time < 24 hr, dose 20 mg/kg, route intravenous; conditions: plasma
[4] = Tmax in mouse at 20 mg/kg, po; type: ADME, organism-based; parameters: dose 20 mg/kg, route oral; conditions: in vivo
[5] = AUC (0 to 24 hrs) in mouse at 20 mg/kg, po; type: ADME, organism-based; parameters: time < 24 hr, dose 20 mg/kg, route oral; conditions: plasma
Cytochrome P450 2D6 [6] = molecular target: T1, Cytochrome P450 2D6 (Homo sapiens, UniProt P10635); experiment: Inhibition of CYP2D6 (unknown origin) compound co-incubated with substrate; type: ADME
Cytochrome P450 2D6 [7] = molecular target: T1, Cytochrome P450 2D6; experiment: Inhibition of CYP2D6 (unknown origin) compound preincubated with substrate; type: ADME
Cytochrome P450 2C9 [8] = molecular target: T2, Cytochrome P450 2C9 (Homo sapiens, UniProt P11712); experiment: Inhibition of CYP2C9 (unknown origin) compound co-incubated with substrate; type: ADME
[9] = Oral bioavailability in mouse at 20 mg/kg; type: ADME, organism-based; conditions: in vivo
Cytochrome P450 2C9 [10] = molecular target: T2, Cytochrome P450 2C9; experiment: Inhibition of CYP2C9 (unknown origin) compound preincubated with substrate; type: ADME

Tumour suppressor p53/oncoprotein Mdm2, sequence (P04637 whole entry): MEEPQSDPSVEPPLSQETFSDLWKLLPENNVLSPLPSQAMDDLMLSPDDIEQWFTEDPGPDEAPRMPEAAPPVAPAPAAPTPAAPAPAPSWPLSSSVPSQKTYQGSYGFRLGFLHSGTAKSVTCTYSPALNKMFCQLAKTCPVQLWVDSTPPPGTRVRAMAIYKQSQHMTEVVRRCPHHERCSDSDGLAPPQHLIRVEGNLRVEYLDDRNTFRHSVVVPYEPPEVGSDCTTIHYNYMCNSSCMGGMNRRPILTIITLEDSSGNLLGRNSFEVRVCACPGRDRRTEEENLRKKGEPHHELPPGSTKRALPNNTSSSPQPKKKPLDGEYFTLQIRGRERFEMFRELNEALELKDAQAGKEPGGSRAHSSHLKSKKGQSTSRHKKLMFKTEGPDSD
Tumour suppressor p53/oncoprotein Mdm2, sequence (Q00987 whole entry): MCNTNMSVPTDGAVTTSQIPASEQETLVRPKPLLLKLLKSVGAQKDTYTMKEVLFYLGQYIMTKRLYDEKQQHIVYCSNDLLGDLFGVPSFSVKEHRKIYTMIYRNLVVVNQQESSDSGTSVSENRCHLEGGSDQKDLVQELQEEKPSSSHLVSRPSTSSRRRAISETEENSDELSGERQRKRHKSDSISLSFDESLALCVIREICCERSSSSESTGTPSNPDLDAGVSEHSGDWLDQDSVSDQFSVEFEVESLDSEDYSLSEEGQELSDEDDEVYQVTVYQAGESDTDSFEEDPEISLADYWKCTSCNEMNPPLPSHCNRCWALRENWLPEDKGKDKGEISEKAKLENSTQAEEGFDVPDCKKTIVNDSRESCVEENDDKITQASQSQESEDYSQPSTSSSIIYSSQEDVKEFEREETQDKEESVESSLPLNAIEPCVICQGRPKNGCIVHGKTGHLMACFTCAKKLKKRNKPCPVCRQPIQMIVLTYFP
T1 sequence (P10635 whole entry): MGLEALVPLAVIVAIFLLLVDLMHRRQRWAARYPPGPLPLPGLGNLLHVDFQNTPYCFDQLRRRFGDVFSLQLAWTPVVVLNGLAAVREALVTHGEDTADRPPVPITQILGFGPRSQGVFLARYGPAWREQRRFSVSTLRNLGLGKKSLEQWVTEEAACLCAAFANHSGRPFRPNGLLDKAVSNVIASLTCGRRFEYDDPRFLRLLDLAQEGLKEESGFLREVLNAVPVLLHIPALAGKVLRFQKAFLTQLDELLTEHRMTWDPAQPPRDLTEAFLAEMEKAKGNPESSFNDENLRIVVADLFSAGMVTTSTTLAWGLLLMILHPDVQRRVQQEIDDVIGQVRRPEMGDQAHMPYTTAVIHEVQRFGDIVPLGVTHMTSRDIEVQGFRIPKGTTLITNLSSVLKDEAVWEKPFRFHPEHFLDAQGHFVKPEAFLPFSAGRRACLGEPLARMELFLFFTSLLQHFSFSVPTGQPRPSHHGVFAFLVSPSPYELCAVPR
T2 sequence (P11712 whole entry): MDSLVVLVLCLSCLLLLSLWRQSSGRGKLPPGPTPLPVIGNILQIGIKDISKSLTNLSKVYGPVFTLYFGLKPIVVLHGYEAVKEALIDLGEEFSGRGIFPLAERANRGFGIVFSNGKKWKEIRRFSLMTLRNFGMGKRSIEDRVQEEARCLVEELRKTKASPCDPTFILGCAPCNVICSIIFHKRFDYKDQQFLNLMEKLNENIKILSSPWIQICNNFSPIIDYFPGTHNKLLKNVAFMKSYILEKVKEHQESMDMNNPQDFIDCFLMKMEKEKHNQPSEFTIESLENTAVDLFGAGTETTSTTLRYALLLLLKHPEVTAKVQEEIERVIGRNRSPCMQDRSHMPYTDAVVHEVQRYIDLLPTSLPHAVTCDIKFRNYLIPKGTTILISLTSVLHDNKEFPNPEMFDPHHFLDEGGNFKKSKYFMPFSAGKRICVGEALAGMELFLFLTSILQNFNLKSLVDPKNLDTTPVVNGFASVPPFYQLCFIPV

SMILES | IC50 [1] | other results
CCOc1ccccc1N1CCN(C(=O)C2(Oc3ccc(C(F)(F)F)cc3)CCCN(C(=O)c3cnccc3C(F)(F)F)C2)CC1 (centres undefined) | 0.59 µM | –
Cc1nc2cc(OC3(C(=O)N4CCN(c5ccccn5)CC4)CCCN(C(=O)c4cnccc4C(F)(F)F)C3)ccc2s1 (centres undefined) | 41 µM | –
O=C(c1cnccc1C(F)(F)F)N1CCCC(Oc2ccc(Cl)cc2)(C(=O)N2CCN(c3ccccn3)CC2)C1 (centres undefined) | 6.7 µM | –
CCC(=O)Nc1ccccc1N1CCN(C(=O)C2(Oc3ccc(C(F)(F)F)cc3)CCCN(C(=O)c3cnccc3C(F)(F)F)C2)CC1 (centres undefined) | 0.37 µM | –
O=C(N1CCN(c2ccccn2)CC1)C1(Oc2ccc(C(F)(F)F)cc2)CCCN(S(=O)(=O)c2ccccc2C(F)(F)F)C1 (centres undefined) | 41 µM | –
O=C(N1CCN(c2ccccn2)CC1)C1(Oc2ccc(C(F)(F)F)cc2)CCCN(CC2CCCCC2)C1 (centres undefined) | 5.1 µM | –
Cc1cc(CC(=O)Nc2ccccc2N2CCN(C(=O)C3(Oc4ccc(C(F)(F)F)cc4)CCCN(C(=O)c4cnccc4C(F)(F)F)C3)CC2)on1 (centres undefined) | 0.63 µM | –
CCCN1CCCC(Oc2ccc(C(F)(F)F)cc2)(C(=O)N2CCN(c3ccccn3)CC2)C1 (centres undefined) | 6.5 µM | –
CC(=O)N1CCN(C(=O)C2(Oc3ccc(C(F)(F)F)cc3)CCCN(C(=O)c3cnccc3C(F)(F)F)C2)CC1 (centres undefined) | 36 µM | –
COCCOc1ccccc1N1CCN(C(=O)C2(Oc3ccc(C(F)(F)F)cc3)CCCN(C(=O)c3cnccc3C(F)(F)F)C2)CC1.Cl (single isomer, unassigned) | – | Cmax [2]: 700 nM; AUC(0-t) at 24 h [3]: 3.4 µM·h; Tmax [4]: 1 h; AUC(0-t) at 24 h [5]: 1.1 µM·h; IC50 (Cytochrome P450 2D6 [6]): > 30 µM; IC50 (Cytochrome P450 2D6 [7]): > 30 µM; IC50 (Cytochrome P450 2C9 [8]): > 30 µM; bioavailability [9]: 32%; IC50 (Cytochrome P450 2C9 [10]): > 30 µM
O=C(N1CCN(c2ccccn2)CC1)C1(Oc2ccc(C(F)(F)F)cc2)CCCN(S(=O)(=O)c2ccccc2)C1 (centres undefined) | 26 µM | –
O=C(N1CCN(c2ccccn2)CC1)C1(Oc2ccc(C(F)(F)F)cc2)CCCN(S(=O)(=O)c2ccccc2Cl)C1 (centres undefined) | 31 µM | –
O=C(c1cnccc1C(F)(F)F)N1CCCC(Oc2ccc(F)cc2)(C(=O)N2CCN(c3ccccn3)CC2)C1 (centres undefined) | 6 µM | –
O=C(c1cnccc1C(F)(F)F)N1CCCC(Oc2ccc(C(F)(F)F)cc2)(C(=O)N2CC=C(c3ccccc3)CC2)C1 (centres undefined) | 1.4 µM | –
O=C(c1cnccc1C(F)(F)F)N1CCCC(Oc2ccc(C(F)(F)F)cc2)(C(=O)N2CCN(c3ccccn3)CC2)C1 (centres undefined) | 2.3 µM | –
O=C(c1cnccc1C(F)(F)F)N1CCCC(Oc2ccc(C(F)(F)F)cc2)(C(=O)NCCc2ccccc2)C1 (centres undefined) | 3.5 µM | –
O=C(c1cnccc1C(F)(F)F)N1CCCC(Oc2ccc(C(F)(F)F)cc2)(C(=O)N2CCN(c3ncccn3)CC2)C1 (centres undefined) | 35 µM | –
O=C(NCCc1ccccc1)C1(Oc2ccc(C(F)(F)F)cc2)CCCN(C(=O)C2(c3ccc(Cl)cc3)CC2)C1 (centres undefined) | 1.4 µM | –
CN(C)CCCC(=O)Nc1ccccc1N1CCN(C(=O)C2(Oc3ccc(C(F)(F)F)cc3)CCCN(C(=O)c3cnccc3C(F)(F)F)C2)CC1 (centres undefined) | 1.08 µM | –
O=C(c1cnccc1C(F)(F)F)N1CCCC(Oc2ccc(C(F)(F)F)cc2)(C(=O)NCc2ccc(Cl)cc2)C1 (centres undefined) | 1.5 µM | –
O=C(N1CCN(c2ccccn2)CC1)C1(Oc2ccc(C(F)(F)F)cc2)CCCN(C(=O)C2(c3ccc(Cl)cc3)CC2)C1 (centres undefined) | 1.9 µM | –
COc1cccc(N2CCN(C(=O)C3(Oc4ccc(C(F)(F)F)cc4)CCCN(C(=O)c4cnccc4C(F)(F)F)C3)CC2)c1 (centres undefined) | > 50 µM | –
CN(C)CCC(=O)Nc1ccccc1N1CCN(C(=O)C2(Oc3ccc(C(F)(F)F)cc3)CCCN(C(=O)c3cnccc3C(F)(F)F)C2)CC1 (centres undefined) | 0.59 µM | –

Continued by falling IC50 [1], values first:

IC50 [1] | SMILES | other results
50 µM | O=C(N1CCN(c2ccccn2)CC1)C1(Oc2ccc(C(F)(F)F)cc2)CCCN(S(=O)(=O)c2ccc(Cl)cc2)C1 (centres undefined) | –
48 µM | O=C(c1cnccc1C(F)(F)F)N1CCCC(Oc2ccc(-c3ccccc3)cc2)(C(=O)N2CCN(c3ccccn3)CC2)C1 (centres undefined) | –
39 µM | O=C(c1cnccc1C(F)(F)F)N1CCCC(Oc2ccc(C(F)(F)F)cc2)(C(=O)N2CCN(Cc3ccccc3)CC2)C1 (centres undefined) | –
33 µM | COc1ccc(OC2(C(=O)N3CCN(c4ccccn4)CC3)CCCN(C(=O)c3cnccc3C(F)(F)F)C2)cc1 (centres undefined) | –
23 µM | COc1ccc(N2CCN(C(=O)C3(Oc4ccc(C(F)(F)F)cc4)CCCN(C(=O)c4cnccc4C(F)(F)F)C3)CC2)cc1 (centres undefined) | –
22 µM | CC(C)(C)C(=O)N1CCCC(Oc2ccc(C(F)(F)F)cc2)(C(=O)N2CCN(c3ccccn3)CC2)C1 (centres undefined) | –
21 µM | O=C(c1cnccc1C(F)(F)F)N1CCCC(Oc2ccccc2Cl)(C(=O)N2CCN(c3ccccn3)CC2)C1 (centres undefined) | –
18 µM | O=C(c1cnccc1C(F)(F)F)N1CCCC(Oc2ccc(C(F)(F)F)cc2)(C(=O)N2CCN(c3ccncn3)CC2)C1 (centres undefined) | –
14 µM | O=C(N1CCN(c2ccccn2)CC1)C1(Oc2ccc(C(F)(F)F)cc2)CCCN(Cc2ccccc2C(F)(F)F)C1 (centres undefined) | –
12 µM | CN1CCN(C(=O)C2(Oc3ccc(C(F)(F)F)cc3)CCCN(C(=O)c3cnccc3C(F)(F)F)C2)CC1 (centres undefined) | –
6.9 µM | CC(C)S(=O)(=O)N1CCCC(Oc2ccc(C(F)(F)F)cc2)(C(=O)N2CCN(c3ccccn3)CC2)C1 (centres undefined) | –
6.9 µM | CC(C)(C)CCN1CCCC(Oc2ccc(C(F)(F)F)cc2)(C(=O)N2CCN(c3ccccn3)CC2)C1 (centres undefined) | –
6.5 µM | O=C(c1ccccc1C(F)(F)F)N1CCCC(Oc2ccc(C(F)(F)F)cc2)(C(=O)N2CCN(c3ccccn3)CC2)C1 (centres undefined) | –
5.2 µM | O=C(c1cnccc1C(F)(F)F)N1CCCC(Oc2cccc(Cl)c2)(C(=O)N2CCN(c3ccccn3)CC2)C1 (centres undefined) | –
4.2 µM | O=C(c1cnccc1C(F)(F)F)N1CCCC(Oc2ccc(C(F)(F)F)cc2)(C(=O)N2CCN(C3CCCCC3)CC2)C1 (centres undefined) | –
3.7 µM | O=C(c1cnccc1C(F)(F)F)N1CCCC(Oc2ccc(C(F)(F)F)cc2)(C(=O)N2CCC(c3ccccn3)C2)C1 (centres undefined) | –
3 µM | CC(C)(C)CC(=O)N1CCCC(Oc2ccc(C(F)(F)F)cc2)(C(=O)N2CCN(c3ccccn3)CC2)C1 (centres undefined) | –
2.9 µM | O=C(c1cnccc1C(F)(F)F)N1CCCC(Oc2ccc(Br)c(F)c2)(C(=O)N2CCN(c3ccccn3)CC2)C1 (centres undefined) | –
2.8 µM | O=C(c1cnccc1C(F)(F)F)N1CCCC(Oc2ccc(C(F)(F)F)cc2)(C(=O)N2CCN(c3ccccc3)CC2)C1 (centres undefined) | –
1.9 µM | O=C(c1cnccc1C(F)(F)F)N1CCCC(Oc2ccc(Br)cc2)(C(=O)N2CCN(c3ccccn3)CC2)C1 (centres undefined) | –
1.5 µM | Cc1ccc(OC2(C(=O)N3CCN(c4ccccn4)CC3)CCCN(C(=O)c3cnccc3C(F)(F)F)C2)cc1 (centres undefined) | –
1.4 µM | O=C(c1cnccc1C(F)(F)F)N1CCCC(Oc2ccc(Cl)c(F)c2)(C(=O)N2CCN(c3ccccn3)CC2)C1 (centres undefined) | –
1.4 µM | O=C(c1cnccc1C(F)(F)F)N1CCCC(Oc2ccc(C(F)(F)F)cc2)(C(=O)N2CCc3ccccc3C2)C1 (centres undefined) | –
0.97 µM | O=C(c1cnccc1C(F)(F)F)N1CCCC(Oc2ccc(C(F)(F)F)cc2)(C(=O)N2CCN(c3ccccc3O)CC2)C1 (centres undefined) | –
0.67 µM | CN(C)CC(=O)Nc1ccccc1N1CCN(C(=O)C2(Oc3ccc(C(F)(F)F)cc3)CCCN(C(=O)c3cnccc3C(F)(F)F)C2)CC1 (centres undefined) | –
0.54 µM | COCC(=O)Nc1ccccc1N1CCN(C(=O)C2(Oc3ccc(C(F)(F)F)cc3)CCCN(C(=O)c3cnccc3C(F)(F)F)C2)CC1 (centres undefined) | –
0.38 µM | CC(=O)Nc1ccccc1N1CCN(C(=O)C2(Oc3ccc(C(F)(F)F)cc3)CCCN(C(=O)c3cnccc3C(F)(F)F)C2)CC1 (centres undefined) | –
0.27 µM | O=C(CC1NC(=O)NC1=O)Nc1ccccc1N1CCN(C(=O)C2(Oc3ccc(C(F)(F)F)cc3)CCCN(C(=O)c3cnccc3C(F)(F)F)C2)CC1 (centres undefined) | –
